Results: patent publication US10865191B2, “Heterocyclic compounds useful as modulators of TNF alpha” (BRISTOL-MYERS SQUIBB COMPANY, priority 2015, dated 2020)

Target: TNFα (Homo sapiens, UniProt P01375)
Experiment: TNF induced HEK-Blue assay (NF-kB-driven secreted alkaline phosphatase reporter)
Format: cell-based
Settings: TNFα 0.5 ng/mL, HEK-Blue-CD40L cells, 18 h; read-out: TNF induced HEK-Blue assay IC50 value
How it was run: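 HEK-Blue-CD40L cells (NF-kB-driven SEAP reporter), 20,000/well, added after 30 min pre-incubation of compound (0.004–25 μM final) with TNFα 0.5 ng/mL final at 37 °C; 18 h incubation. SEAP read with QUANTI-Blue at 620 nm; IC50 from 4-parameter logistic fit, normalized to unstimulated and stimulated DMSO controls.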

Sequence of TNFα (P01375 77-233 limits assumed): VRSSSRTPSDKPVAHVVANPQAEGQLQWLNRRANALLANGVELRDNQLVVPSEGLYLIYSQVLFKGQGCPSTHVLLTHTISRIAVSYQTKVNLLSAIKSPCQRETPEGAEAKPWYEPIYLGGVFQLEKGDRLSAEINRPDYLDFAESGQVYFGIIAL

IC50 | Structure (SMILES)
< 1000 nM | Cc1nc2ccc(-c3cnc(C(C)(C)O)nc3)cc2c(N[C@H](C)c2cc(OCCO)ccc2F)c1Cl [Example 435, (R)-2-(5-(3-chloro-4-((1-(2-fluoro-5-(2-hydroxyethoxy)phenyl)ethyl)amino)-2-methylquinolin-6-yl)pyrimidin-2-yl)propan-2-ol]
1000 to 10000 nM | CC1=C(CC(C)Nc2c(Cl)cnc3ccc(-c4cnc(C(C)(C)O)nc4)cc23)CCC1(C)C (racemic) [Example 134, 2-(5-(3-chloro-4-((1-(2,3,3-trimethylcyclopent-1-en-1-yl)propan-2-yl)amino)quinolin-6-yl)pyrimidin-2-yl) propan-2-ol]
< 1000 nM | CC(Nc1c(Cl)cnc2ccc(-c3ccc(C(C)(C)O)cc3)cc12)c1ccncc1 (racemic) [Example 176, 2-(4-(3-chloro-4-((1-(pyridin-4-yl)ethyl)amino)quinolin-6-yl)phenyl)propan-2-ol]
< 1000 nM | CC(Nc1c(Cl)cnc2cc(F)c(-c3cnc(C(C)(C)O)nc3)nc12)c1ccccc1F (racemic) [Example 209, 2-(5-(7-chloro-3-fluoro-8-((1-(2-fluorophenyl)ethyl)amino)-1,5-naphthyridin-2-yl)pyrimidin-2-yl)propan-2-ol]
< 1000 nM | C=CC[C@@H](Nc1c(Cl)cnc2ccc(-c3cnc(C(C)(C)O)nc3)cc12)c1cc(Cl)ccn1 [Example 63, (R)-2-(5-(3-chloro-4-((1-(4-chloropyridin-2-yl)but-3-en-1-yl)amino)quinolin-6-yl)pyrimidin-2-yl)propan-2-ol]
1000 to 10000 nM | C[C@@H](Nc1c(Cl)cnc2ccc(-c3ccc(C4(NC(N)=O)CCC4)cc3)cc12)c1ccccc1F [Example 483, (R)-1-(1-(4-(3-chloro-4-((1-(2-fluorophenyl)ethyl)amino)quinolin-6-yl)phenyl)cyclobutyl)urea]
< 1000 nM | Cc1nc2cc(F)c(-c3cnc(C(C)(C)O)nc3)nc2c(N[C@H](C)c2cccc(C(O)CO)c2)c1Cl (stereo partly drawn) [Example 575, 1-(3-((R)-1-((3-chloro-7-fluoro-6-(2-(2-hydroxypropan-2-yl)pyrimidin-5-yl)-2-methyl-1,5-naphthyridin-4-yl)amino)ethyl)phenyl)ethane-1,2-diol]
10000 to 25000 nM | CC(C)(O)c1ncc(-c2ccc3ncc(Cl)c(NC(c4ccccc4F)C(C)(C)F)c3c2)cn1 (racemic) [Example 229, 2-(5-(3-chloro-4-((2-fluoro-1-(2-fluorophenyl)-2-methylpropyl)amino)quinolin-6-yl)pyrimidin-2-yl)propan-2-ol]
1000 to 10000 nM | Cc1ccc(C)c(NCc2nc3ccc(-c4ccc(C#N)nc4)cc3c(Nc3cc(C)ccc3C)c2Cl)c1 [Example 3, 5-(3-chloro-4-((2,5-dimethylphenyl)amino)-2-(((2,5-dimethylphenyl)amino)methyl)quinolin-6-yl)picolinonitrile]
1000 to 10000 nM | COc1ccc(F)c([C@@H](C)Nc2c(Cl)c(C)nc3ccc(Br)cc23)c1 [Example 328, (R)-6-bromo-3-chloro-N-(1-(2-fluoro-5-methoxyphenyl)ethyl)-2-methylquinolin-4-amine]
< 1000 nM | Cc1nc2ccc(-c3cnc(N4CCN(CC(=O)O)CC4)nc3)cc2c(NC(C)c2ccccc2F)c1Cl (racemic) [Example 309, 2-(4-(5-(3-chloro-4-((1-(2-fluorophenyl)ethyl)amino)-2-methylquinolin-6-yl)pyrimidin-2-yl)piperazin-1-yl)acetic acid]
< 1000 nM | CC(Nc1c(Cl)cnc2cc(F)c(-c3cnc(N4CCC(CC(=O)O)CC4)nc3)cc12)c1ccccc1F (racemic) [Example 266, 2-(1-(5-(3-chloro-7-fluoro-4-((1-(2-fluorophenyl)ethyl)amino)quinolin-6-yl)pyrimidin-2-yl)piperidin-4-yl)acetic acid]
< 1000 nM | CC(Nc1c(Cl)cnc2cc(F)c(-c3cc(F)c(C(C)(C)O)c(F)c3)cc12)c1ccccc1F (centres unmarked) [Example 268, 2-(4-(3-chloro-7-fluoro-4-((1-(2-fluorophenyl)ethyl)amino)quinolin-6-yl)-2,6-difluorophenyl) propan-2-ol]
< 1000 nM | C[C@@H](Nc1c(Cl)cnc2ccc(-c3cnc(C(C)(C)O)nc3)cc12)c1cc(-c2cnn(C)c2)ccc1F [Example 339, (R)-2-(5-(3-chloro-4-((1-(2-fluoro-5-(1-methyl-1H-pyrazol-4-yl)phenyl)ethyl)amino)quinolin-6-yl)pyrimidin-2-yl)propan-2-ol]
< 1000 nM | Cc1nc2ccc(-c3cnc(C(C)(C)O)nc3)cc2c(N[C@H](C)c2cc(-c3ccccc3)ccc2F)c1Cl [Example 331, (R)-2-(5-(3-chloro-4-((1-(4-fluoro-[1,1′-biphenyl]—3-yl)ethyl)amino)-2-methylquinolin-6-yl)pyrimidin-2-yl)propan-2-ol]
< 1000 nM | COCC(C)(O)c1ncc(-c2cc3c(NC(C)c4ccccc4F)c(Cl)cnc3cc2F)cn1 (centres unmarked) [Example 292, 2-(5-(3-chloro-7-fluoro-4-((1-(2-fluorophenyl)ethyl)amino)quinolin-6-yl)pyrimidin-2-yl)-1-methoxypropan-2-ol]

IC50 | Structure (SMILES)
< 1000 nM | CC(C)(O)c1ncc(-c2cc(F)c3ncc(Cl)c(N[C@@H](c4ccccc4F)C(F)F)c3c2)cn1 [Example 297, (S)-2-(5-(3-chloro-4-((2,2-difluoro-1-(2-fluorophenyl)ethyl)amino)-8-fluoroquinolin-6-yl)pyrimidin-2-yl)propan-2-ol]
10000 to 25000 nM | Cc1ccc(Br)cc1Nc1c(Cl)c(C)nc2ccccc12 [Example 470, N-(5-bromo-2-methylphenyl)-3-chloro-2-methylquinolin-4-amine]
1000 to 10000 nM | Cc1ccc(C)c(Nc2c(Cl)c(C(=O)N(C)C)nc3ccc(-c4ccc(C#N)nc4)cc23)c1 [Example 34, 3-chloro-6-(6-cyanopyridin-3-yl)-4-((2,5-dimethylphenyl)amino)-N,N-dimethylquinoline-2-carboxamide]
1000 to 10000 nM | CC(Nc1c(Cl)cnc2cc(F)c(-c3cnc(N4CCC(O)C4)cn3)cc12)c1ccccc1F (centres unmarked) [Example 284, 1-(5-(3-chloro-7-fluoro-4-((1-(2-fluorophenyl)ethyl)amino)quinolin-6-yl)pyrazin-2-yl)pyrrolidin-3-ol]
< 1000 nM | CC(Nc1c(Cl)cnc2cc(F)c(-c3ccc(C(O)CN4CCOCC4)cc3)cc12)c1ccccc1F (centres unmarked) [Example 277, 1-(4-(3-chloro-7-fluoro-4-((1-(2-fluorophenyl)ethyl)amino)quinolin-6-yl)phenyl)-2-morpholinoethan-1-ol]
< 1000 nM | O=C(O)CN1CCN(c2ncc(-c3ccc4ncc(Cl)c(N[C@@H](c5ccccc5F)C(F)F)c4c3)cn2)CC1 [Example 92, (S)-2-(4-(5-(3-chloro-4-((2,2-difluoro-1-(2-fluorophenyl)ethyl)amino)quinolin-6-yl)pyrimidin-2-yl)piperazin-1-yl)acetic acid]
1000 to 10000 nM | CCC(Nc1c(Cl)cnc2ccc(-c3cnc(C(C)(C)O)nc3)cc12)c1nc(C(=O)O)ccc1F (centres unmarked) [Example 128, 6-(1-((3-chloro-6-(2-(2-hydroxypropan-2-yl)pyrimidin-5-yl)quinolin-4-yl)amino)propyl)-5-fluoropicolinic acid]
1000 to 10000 nM | CNC(=O)c1nc2ccc(-c3ccc(C#N)nc3)cc2c(Nc2cc(C)ccc2C)c1Cl [Example 33, 3-chloro-6-(6-cyanopyridin-3-yl)-4-((2,5-dimethylphenyl)amino)-N-methylquinoline-2-carboxamide]
< 1000 nM | C[C@@H](Nc1c(Cl)cnc2ccccc12)c1cc(-c2ccc(N(C)C)nc2)ccc1F [Example 506, (R)-3-chloro-N-(1-(5-(6-(dimethylamino)pyridin-3-yl)-2-fluorophenyl)ethyl) quinolin-4-amine]
< 1000 nM | Cc1nc2ccc(-c3cnc(C(C)(C)O)nc3)cc2c(N[C@H](C)c2cc(-c3cnc(C(C)(C)O)nc3)ccc2F)c1Cl [Example 343, (R)-2-(5-(3-chloro-4-((1-(2-fluoro-5-(2-(2-hydroxypropan-2-yl)pyrimidin-5-yl)phenyl)ethyl)amino)-2-methylquinolin-6-yl)pyrimidin-2-yl)propan-2-ol]
10000 to 25000 nM | Cc1ccc(C)c(NCc2nc3ccc(-c4cnn(C)c4)cc3c(Nc3cc(C)ccc3C)c2Cl)c1 [Example 2, 3-chloro-N-(2,5-dimethylphenyl)-2-(((2,5-dimethylphenyl)amino)methyl)-6-(1-methyl-1H-pyrazol-4-yl)quinolin-4-amine]
< 1000 nM | C[C@@H](Nc1c(Cl)cnc2ccc(-c3cnc(C4(O)COC4)nc3)cc12)c1ccccc1F [Example 227, (R)-3-(5-(3-chloro-4-((1-(2-fluorophenyl)ethyl)amino)quinolin-6-yl)pyrimidin-2-yl)oxetan-3-ol]
< 1000 nM | CC(CC1CCCC1)Nc1c(Cl)cnc2ccc(-c3cnc(C(C)(C)O)nc3)cc12 (racemic) [Example 140, 2-(5-(3-chloro-4-((1-cyclopentylpropan-2-yl)amino)quinolin-6-yl)pyrimidin-2-yl)propan-2-ol]
< 1000 nM | Cc1nc2ccc(-c3ccc(C(C)(C)O)cc3)cc2c(N[C@H](C)c2cc(C(N)=O)ccc2F)c1Cl [Example 312, (R)-3-(1-((3-chloro-6-(4-(2-hydroxypropan-2-yl)phenyl)-2-methylquinolin-4-yl)amino)ethyl)-4-fluorobenzamide]
10000 to 25000 nM | Cc1ccc2c(CCC(C)Nc3c(Cl)cnc4ccc(-c5cnc(C(C)(C)O)nc5)cc34)c[nH]c2c1 (racemic) [Example 141, 2-(5-(3-chloro-4-((4-(6-methyl-1H-indol-3-yl)butan-2-yl)amino)quinolin-6-yl)pyrimidin-2-yl)propan-2-ol]
< 1000 nM | Cc1nc2cc(F)c(-c3cnc(C(C)(C)O)nc3)nc2c(N[C@H](C)c2ccccc2)c1Cl [Example 213, (R)-2-(5-(7-chloro-3-fluoro-6-methyl-8-((1-phenylethyl)amino)-1,5-naphthyridin-2-yl)pyrimidin-2-yl)propan-2-ol]
